How the values were obtained:
[1] = system: full-thickness dermal wounds of db/db mice; assay: Wound healing in db/db diabetic mice; type: in vivo; settings: SkQ1 in 20% glycerol, 250 nmol/kg per day, 10 to 12 weeks; 7 days after wounding
Excerpt: Wound healing was studied in two series using 6 months old C57BLKS-Leprdb/J mice (db/db) homozygous and heterozygous C57BLKS-Leprdb/J mice (db/+) mice. These mice are used as type II diabetes model with impaired wound healing (Michaels, et al. (2007) Wound Repair and Regeneration, 15:665-670).
The mice were daily administered 250 nmol/kg body weight per day with the pharmaceutical form of SkQ1 in 20% glycerol as described in Example 8) during period of time from 10 weeks to 12 weeks. Control groups of db/db and db/+ mice were not treated with SkQ1. Full-thickness dermal wounds were made under anesthesia of ketamine (80 mg/kg). Animals were kept in plastic cages under standard temperature, light, and feeding regimes. 7 days after wounding, animals were sacrificed by decapitation. The wounds were excised, fixed in 10% formalin in standard PBS buffer, histologically processed, and embedded in paraffin. Histological sections of central part of the wounds were cut and stained with hematoxylin and eosin. The sections were immunohistochemically stained for markers of endothelial cells (CD31), macrophages (f4/80), and myofibroblasts (smooth muscle α-actin). ImageJ software (National Institutes of Health (NIH) http:/rsb.info.nih.gov/ij/) was used to calculate total amount of cells, number of neutrophils, macrophages and vessel density (vessel area/granulation tissue area*100) on the microphotographs of wound sections. For each animal 100 mm^2 of section area was analyzed. Wound epithelization rate was assessed in % as ratio of epithelized wound area to total wound area on tissue section*100. For statistical analysis nonparametric Mann-Whitney U-test was used. Data are shown as means±S.E.M.

[2] = Accelerated decay experiment of SkQ1H2/ascorbic acid powder; type: physicochemical; settings: powder 95% ascorbic acid and 5% SkQ1H2
Description: SkQ1H2, a reduced quinole form of SkQ, was prepared as follows: 10 ml SkQ1H2 solution (with concentration 1 mg/ml) in ethanol was thoroughly mixed with 200 mg ascorbic acid and then vacuum dried.

## CC1=C(C)C(=O)C(CCCCCCCCCC[P+](c2ccccc2)(c2ccccc2)c2ccccc2)=CC1=O [SkQ1]
[1]
  neutrophil infiltration of wounds: decreasing
  rate of epithelization of wounds: increasing
  vascularization of wounds (vessel density): increasing
[2]; after storage for 12 d at 60° C.
  SkQ1 purity: 95.1%
[2]; calculated for storage for 1 year at 4° C.
  loss from the initial concentration of the active compound: approximately 3.5%
[2]; initial
  SkQ1 purity: 98.7%

From patent US9572890B2, “Oral formulations of mitochondrially-targeted antioxidants and their preparation and use” (MITOTECH SA, priority 2011, dated 2017)
